Measurements as given in US20200330456A1, “NOVEL APPLICATION OF GZD824 AND PHARMACEUTICALLY ACCEPTABLE SALTS THEREOF IN TREATING DISEASES” (HEALTHQUEST PHARMA INC., priority 2016, published 2020).

Tests used:
[1] = tested on: NALM6 cells; assay: Apoptosis kit (ANNEXIN V, PI) flow cytometry, NALM6; format: cell-based; conditions: 24 hours, GZD824 vs KX2-391 vs HO-3867 vs DMSO
Protocol: 1.2 After treating NALM6 and SUPB15 cells respectively with GZD824 (3 μM, 1 μM) and DMSO of different concentrations for 24 hours, apoptosis was detected using an apoptosis kit (ANNEXIN V, PI). Please refer to FIG. 2 for the results. After treating the two types of cells NALM6 and SUPB15 respectively with GZD824 of different concentrations (3 μM/L, 1 μM/L) for 24 hours, the cells were stained with the apoptosis kit (ANNEXIN V, PI), and apoptosis was detected with flow cytometry.
5.3 After treating NALM6 cells with GZD824, SRC suppressor (KX2-391), STAT3 suppressor (HO-3867) or DMSO for 24 hours, apoptosis was detected by using the apoptosis kit (ANNEXIN V, PI). The ratio of ANNEXIN V positive cells was analyzed by statistical methods. […] For the experimental results, please refer to FIG. 15.

[2] = tested on: human primary leukemia cells from P #1 PDX mouse spleen; assay: Apoptosis of human primary leukemia cells from P #1 PDX mouse spleen, with and without IGF-1; format: cell-based; conditions: P #1 PDX spleen cells; GZD824 1 μM/L and IGF-1 10 ng/mL, 24 hours
Protocol: 6.2 Human primary leukemia cells were extracted from P #1 PDX mouse spleen and co-cultured with DMSO, GZD824 (1 μM/L), IGF-1 (10 ng/mL), or GZD824 (1 μM/L) and IGF-1 (10 ng/mL) for 24 hours. The ratios of ANNEXIN V positive cells were analyzed by statistical methods. […] Please refer to FIG. 17 for the experimental results.

Row | Molecule | ratio of apoptosis (ANNEXIN V positive cells), comparison of inhibitors [1] | effect of added IGF-1 on GZD824-induced apoptosis [2]
1 | CC1(C)C=C(CN2C/C(=C\c3ccc(F)cc3)C(=O)/C(=C/c3ccc(F)cc3)C2)C(C)(C)N1O [HO-3867, reference compound] | almost the same | –
2 | O=C(Cc1ccc(-c2ccc(OCCN3CCOCC3)cc2)cn1)NCc1ccccc1 [KX2-391, reference compound] | almost the same | –
3 | IGF-1: cytokine IGF-1, added at 10 ng/mL | – | partly reverse the effect of GZD824 on apoptosis
